Consider five molecules from patent US20100144779A1, “Marine Alkalod Makaluvamines and Derivatives Thereof” (THE UAB RESEARCH FOUNDATION, priority 2007, published 2010).

The term GI50 denotes the concentration giving 50% growth inhibition. Lower therefore signals greater sensitivity of the cells.

Assay [1] deals with MDA-MB-231/ATCC. In words: NCI60 cell line screen (SRB). Format: cell-based, human. To be noted: Breast Cancer, 48 h. The gist of the method:
(§1)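 Percentage growth was derived as [(Ti−Tz)/(C−Tz)]×100 when Ti≥Tz, otherwise [(Ti−Tz)/Tz]×100, from SRB absorbance. Adherent cells, cultured in RPMI 1640 plus 5% FBS, were drug-treated for 48 h after a 24 h attachment period.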

Assay [2] deals with NCI/ADR-RES. Briefly: NCI60 cell line screen (SRB). The assay is classed as cell-based, human. As to conditions: Breast Cancer, 48 h. In short, it runs like this:
as §1

Turning to `CNC1=CC2=NCCc3c[nH]c(c32)C1=O` [Compound 4a], the 50% growth inhibitory concentration (GI50) in assay [1] stood at 3.13 µM; in assay [2], 9.33 µM.
`O=C(O)C(F)(F)F.O=C1C(NCc2ccc(F)cc2)=CC2=NCCc3c[nH]c1c32` [Compound 28]: the figures for the GI50 in assay [1] (Homo sapiens) and in assay [2] (Homo sapiens) were 0.725 µM and 3.11 µM, respectively.
Regarding `O=C1C(NCc2ccccc2)=CC2=NCCc3c[nH]c1c32` [Compound 4c], the concentration for 50% growth inhibition (GI50) in assay [1] was determined as 0.439 µM; in assay [2], 3.51 µM.
As for `O=C(O)C(F)(F)F.O=C1C(NCCc2ccc3c(c2)OCO3)=CC2=NCCc3c[nH]c1c32` [Compound 6], the GI50 amounted to 2.32 µM in assay [1] (Homo sapiens) and 1.76 µM in assay [2] (Homo sapiens).
In the same order, the values of `COc1ccc(CCNC2=CC3=NCCc4c[nH]c(c43)C2=O)cc1OC.O=C(O)C(F)(F)F` [Compound 20] are 3.21 µM and 12.4 µM.
